Test [1] deals with T1, SLC19A1 (Homo sapiens, UniProt P41440).
T1 sequence (P41440 1-591): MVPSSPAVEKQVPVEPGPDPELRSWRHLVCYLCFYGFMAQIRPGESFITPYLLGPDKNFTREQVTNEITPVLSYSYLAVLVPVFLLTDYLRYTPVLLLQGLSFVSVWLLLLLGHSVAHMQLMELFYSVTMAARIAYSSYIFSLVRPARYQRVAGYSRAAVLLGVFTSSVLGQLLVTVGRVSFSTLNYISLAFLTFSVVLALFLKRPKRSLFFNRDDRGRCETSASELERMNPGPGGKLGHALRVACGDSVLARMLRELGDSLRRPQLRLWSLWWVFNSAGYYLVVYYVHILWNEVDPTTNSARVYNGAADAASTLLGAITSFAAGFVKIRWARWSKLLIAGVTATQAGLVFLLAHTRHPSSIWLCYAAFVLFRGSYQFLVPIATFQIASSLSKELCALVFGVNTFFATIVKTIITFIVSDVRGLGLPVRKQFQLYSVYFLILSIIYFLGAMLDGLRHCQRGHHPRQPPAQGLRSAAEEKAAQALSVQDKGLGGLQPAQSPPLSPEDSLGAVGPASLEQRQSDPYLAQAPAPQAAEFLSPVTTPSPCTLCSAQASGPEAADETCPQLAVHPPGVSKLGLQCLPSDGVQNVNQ
Description: Reporter response to CDNs in THP-1 cells with SLC19A1 knocked down or overexpressed. As to conditions: SLC19A1 knockdown vs control, synthetic CDN 1.7 μg/ml, hIFNβ 100 ng/ml, 20 h.
Description: To test the role of SLC19A1 in the response to extracellular CDNs, THP-1 cell lines were created in which SLC19A1 was knocked-down or knocked-out, using conventional methods. SLC19A1 knockdown was confirmed and cells were stimulated with synthetic CDN or hIFNβ.
Panel A) Flow cytometry-generated dot plots of THP-1 cells expressing an ISRE-driven tdTomato reporter. Reporter expression was induced upon stimulation with the synthetic CDN (1.7 μg/ml) for 20 h. Panel B) Validation of targets identified by a genome-wide screen using THP-1 cells described in (Panel A) using conventional methods. Cells expressed a control vector or IRF3 or SLC19A1 gRNA. Cells were stimulated with (Panel B) synthetic CDN (1.7 μg/ml) or (Panel D) human interferon-beta (hIFNβ) (100 ng/ml) for 20 h. Cells were analyzed for reporter by flow cytometry as in (A). E) Indicated cell lines expressing SLC19A1 or vector only were stimulated with synthetic CDN (1.7 μg/ml). Reporter expression was measured 20 h after stimulation.

Test [2] deals with T1, SLC19A1. The following applies: at high doses; cited from earlier work.
In test [3] the test system is THP-1 cells expressing an ISRE-driven tdTomato reporter. Description: Synthetic CDN or hIFNβ stimulation of tdTomato reporter THP-1 cells in the presence of sulfasalazine. The test is classed as cell-based, human. An excerpt:
To identify genes encoding molecules involved in this process, a reporter system was created to detect STING activation in response to extracellular CDNs, in order to perform a genetic screen. The reporter was composed of an Interferon Stimulatory Response Element (ISRE) cassette driving the expression of the fluorescent protein tdTomato. […] Subsequently, THP-1 cells containing the reporter were transduced with a genome-wide library of guide RNAs (gRNAs), which suppress expression of target genes. The library targeted 20,000 genes within the human genome. The gRNA library-expressing THP-1 cells were stimulated with synthetic CDN, and the cells were subsequently sorted into two populations based on either low (hyporesponsive) or high (hyper-responsive) levels of tdTomato reporter expression. These populations were sequenced to reveal the RNA targets. As expected, gRNAs targeting components of the STING pathway, including IRF3 and STING itself, were enriched in the hyporesponsive cells and depleted in the hyper-responsive cells, corroborating the success of the screening procedure. Other “hits” in the screen were examined for their role in CDN transport.
The transport activity of folate by SLC19A1 can be altered by a variety of organic and inorganic anions, including the compound sulfasalazine (Jansen et al. “Sulfasalazine is a potent inhibitor of the reduced folate carrier: Implications for combination therapies with methotrexate in rheumatoid arthritis.” Arthritis Rheum. 50, 2130-2139 (2004); Goldman, “The characteristics of the membrane transport of amethopterin and the naturally occurring folates.” Ann. N. Y. Acad. Sci. 186, 400-22 (1971)). […] We therefore tested whether sulfasalazine blocks the response of cells to CDNs.
FIG. 2. Panel A) THP-1 cells were stimulated with synthetic CDN (2.5 μg/ml) in the presence of high concentrations of sulfasalazine (SSZ) or vehicle. Reporter expression was measured 20 h post stimulation. […] Reporter expression was measured 20 h post stimulation.

Entries after “also recorded” stand apart in the source; their conditions may differ.

Regarding `Nc1ncnc2c1ncn2[C@@H]1O[C@@H]2COP(=O)(O)O[C@H]3[C@@H](O)[C@H](n4cnc5c(N)ncnc54)O[C@@H]3COP(=O)(O)O[C@H]2[C@H]1O` [CDA, cyclic di-AMP], the “effect of knocking down SLC19A1 expression on the response to the stimulant” value in test [1] was “reduced the response”.

Take `O=C(O)c1cc(/N=N/c2ccc(S(=O)(=O)Nc3ccccn3)cc2)ccc1O` [sulfasalazine]: the “transport of folates and folate-derivatives by SLC19A1” value in test [2] is on record as “non-competitively inhibits”. Moreover, the “response of the cells to hIFNβ” value in test [3] (either low or high sulfasalazine concentrations) is “only marginally affected”. In test [3] (high concentration (1000 μM) of sulfasalazine, synthetic CDN 2.5 μg/ml, 20 h post stimulation), the “response to synthetic CDN stimulation (reporter expression)” value is “complete blocking; also recorded: almost completely blocked”. For the same molecule, the “responsiveness of cells to synthetic CDN compared to untreated cells (reporter expression)” value in test [3] (low concentrations of sulfasalazine (e.g. 100 μM), synthetic CDN 1.25 μg/ml, 20 h post stimulation) is given as “significantly increased”.

The values above are taken from patent publication US20210275547A1, “Methods of Modulating Activity of a Cyclic Dinucleotide (CDN) with a CDN Transporter-Modulating Agent” (THE REGENTS OF THE UNIVERSITY OF CALIFORNIA, priority 2018, published 2021).
